From patent US20150344535A1, “NEUROTROPHIN-TYROSINE KINASE RECEPTOR SIGNALING” (THE UNIVERSITY OF QUEENSLAND, priority 2012, published 2015)

Tests used:
[1] = tested on: primary E13 motor neurons; test: Primary motor neuron survival and growth factor withdrawal; type: cell-based, mouse
Description: Briefly, pregnant mothers were sacrificed by cervical dislocation and the uterus removed by Caesarean section and placed in Neurobasal medium. Lumbar spinal cords were dissected from E13 embryos on ice. Batches of 2 or 3 spinal cords were incubated in 1 mL 0.05% trypsin-ETDA for 10 minutes at 37° C. in 15 mL tubes. To prevent further trypsinisation, 0.14 mg/mL trypsin inhibitor solution was added and the tissue centrifuged at 100×g for 7 minutes, without acceleration or deceleration. The supernatant was removed and the spinal cord tissue was resuspended in 1 mL of Neurobasal Medium (NB). In order to obtain a single cell suspension, each batch of 2-3 spinal cords was agitated manually for 2 minutes. The suspension was allowed to settle and the supernatant collected after being filtered through a 100 μm sieve. The remaining tissue was further triturated ˜8 times through a P200 pipette and filtered through a 100 μm sieve. The combined supernatants were then separated by centrifugation on a 5 ml cushion of 9% (vol/vol) OptiPrep® gradient in NB containing 2% B27 supplement for 45 min at 850×g, without acceleration or deceleration. To prevent toxicity following Optiprep® separation, the layer containing MNs was harvested into 10 mL of NB containing 10% HS, and the cell suspension was centrifuged at 900×g for 7 minutes at 24° C., without acceleration or deceleration. The supernatant was removed and the cell pellet was resuspended in 1 mL of NB medium.
The number of viable motor neurons was counted on a haemocytometer using 0.08% trypan blue and neurons plated in 4-well culture dishes at a density of 3,000 cells per well in 100 μL NB containing 10% HS. […] Primary motor neurons were maintained at 37° C. in a humidified atmosphere with 5% CO2 and culture medium was replaced at day 1 and 3. Phase contrast images of motor neurons were taken using an Olympus (6IX81) microscope after motor neurons were grown in vitro for up to 7 days.
To assess the effects of c29 peptide on motor neuronal survival in limiting growth factor concentrations, isolated spinal motor neurons were plated and treated with 0.01, 0.1 or 1.0 ng/ml of BDNF in the presence of 1 μm PTD4-linked c29 or scrambled peptide, and cultured for 5 days with the addition of fresh BDNF and peptide treatments on day 2 and 4. For growth factor-withdrawal assays, following initial plating in 1 ng/ml of BDNF, CNTF or GDNF, cultures were washed four times with serum-free Neurobasal (NB) medium, after which the medium was replaced with medium containing 1-0.01 ng/ml of BDNF, CNTF or GDNF and 1 μM PTD4-linked c29 or scrambled peptides, as indicated. For assays investigating the effect of c29 on NGF-mediated motor neuron death, cultures were grown in 1 ng/ml BDNF, CNTF or GDNF for 1 day, before being treated with 100 ng/ml 2.5S NGF in and 1 μM PTD4-linked c29 or scrambled peptide, as indicated. Motor neurons were counted on day 1, and to assess the effects of various treatments days 3 and 5 (4 separate 10×10 grid fields of each well per experiment).

PC12 cells = test: PC12 cell viability / NGF withdrawal (acid phosphatase assay); type: cell-based
Description: To investigate the role of c29 peptide in NGF-withdrawal assays, NGF-containing medium in PC12 cultures was exchanged for NGF-free medium on day 3, and cells were treated with c29 or scrambled peptide and reduced NGF concentrations (1 ng or 10 ng/ml). Treated cells were cultured for 2 days and cell viability was determined via quantification of cytosolic acid phosphatase enzyme activity as described in (Yang et al., 1996).
Briefly, cells were grown in 96-well plates at densities of 5000 cells per well. The culture medium in treated cell assays was removed from and each well was washed once with 200 μl phosphate buffered saline (PBS, pH 7.2). To each well, 100 μl of sodium acetate and p-nitrophenyl phosphate buffer containing 0.1 M sodium acetate (pH 5.0), 0.1% Triton X-100, and 5 mM p-nitrophenyl phosphate was added. The plates were placed in a 37° C. incubator for 30 minutes. The reaction was stopped with the addition of […] of 1 N NaOH, and colour development absorbance was assayed at 405 nm using a microplate reader (POLARstar OPTIMA, USA). […] This background value was typically 0.03-0.1 absorbance units.

TrkAK538A = molecular target: T1, TrkAK538A (Homo sapiens, UniProt P04629, K544A); test: NGF-FITC binding by flow cytometry, TrkAK538A-transfected HEK293 cells
T1 construct: expressed in transfected cells; host or cells: HEK293
T1 sequence (P04629 33-796 K544A): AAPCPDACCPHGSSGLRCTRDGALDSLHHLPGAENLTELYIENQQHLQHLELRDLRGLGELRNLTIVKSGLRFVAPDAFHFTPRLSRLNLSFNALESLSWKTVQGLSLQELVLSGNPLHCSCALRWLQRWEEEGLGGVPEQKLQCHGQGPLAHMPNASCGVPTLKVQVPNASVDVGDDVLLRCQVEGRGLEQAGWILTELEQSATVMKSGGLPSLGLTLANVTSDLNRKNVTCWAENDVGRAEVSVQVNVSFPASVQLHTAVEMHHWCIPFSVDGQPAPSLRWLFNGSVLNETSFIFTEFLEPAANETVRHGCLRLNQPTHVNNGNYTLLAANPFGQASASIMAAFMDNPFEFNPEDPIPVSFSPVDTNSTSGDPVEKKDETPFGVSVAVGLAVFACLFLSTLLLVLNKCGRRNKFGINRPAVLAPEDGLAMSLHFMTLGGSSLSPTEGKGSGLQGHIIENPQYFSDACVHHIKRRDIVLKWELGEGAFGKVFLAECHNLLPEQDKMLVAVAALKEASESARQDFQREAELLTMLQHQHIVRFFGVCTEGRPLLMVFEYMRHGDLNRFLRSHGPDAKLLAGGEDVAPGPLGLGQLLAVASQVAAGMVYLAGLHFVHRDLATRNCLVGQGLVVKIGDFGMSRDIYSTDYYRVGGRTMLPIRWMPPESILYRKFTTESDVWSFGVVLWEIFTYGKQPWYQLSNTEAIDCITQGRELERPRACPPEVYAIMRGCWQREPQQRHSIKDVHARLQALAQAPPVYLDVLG
T1 sequence (P01139 122-239 partner limits assumed): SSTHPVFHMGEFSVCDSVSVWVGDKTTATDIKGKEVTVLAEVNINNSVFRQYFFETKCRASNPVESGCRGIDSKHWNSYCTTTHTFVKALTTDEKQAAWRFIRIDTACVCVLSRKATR
Description: The NGF was conjugated to FITC by standard methods and detailed flow cytometry acquisition and analysis. For NGF-FITC conjugation 400 μg βNGF in 200 μl pH 8.5 NaHCO3 buffer was mixed with 5-10 μl of 10 mg/ml FITC in 100 μl DMSO for 10 hours at 4° C. on an orbital shaker set to 100 rpm. The excess FITC was removed by dialysis against 3 changes of 5 L of 10 mM Tris, 150 mM NaCl, 0.2% acetic acid, pH 8.2 for 24 hours at 4° C. Conjugate F/P characterization was determined by measuring absorbance at 280 nm and 495 nm according to manufacturer's instructions. Biological activity of the NGF-FITC conjugate was tested by performing PC12 cell neurite outgrowth assays unlabelled NGF, and comparing the levels of neuritogenesis. NGF-FITC conjugates were used within 4 weeks of synthesis.
For the flow cytometry NGF binding assays, fluorescence cell parameters of at least 20,000 events for PC12 cells and 100,000 events for HEK293 cells were acquired by flow cytometry list mode and measurements were performed on a single cell basis (with compensation for double event counting). Dead cells and debris were gated out of the analysis on the basis of forward scatter fluorescence, and mean, median and maximal fluorescence values of the gated cell populations were analysed using FACS Diva Software (Becton-Dickinson Biosciences) and FACS Express Software (Becton-Dickinson Biosciences).
Background fluorescence of HEK293 cells was non-transfected cells (±c29 or scrambled peptide treatment) treated with 26 nM NGF-FITC. For PC12 cells, the control population was cells that had not been treated with NGF-FITC. Analysis of real-time NGF-FITC receptor binding experiments was performed on 550,000-600,000 cells at 4° C. in serum free NB medium and binding kinetics were calculated from raw data files compressed to 50,000 binding events using FlowJo and MatLab Software. Data was plotted with the use of GraphPad Prism.
Only NGF-FITC preparations that promoted equivalent neurite outgrowth of PC12 cells to that of unlabelled NGF were used in binding experiments. To investigate NGF binding, PC12 or transfected HEK293 cells were serum starved for 4 hours, harvested, washed with Dulbecco's Modified Eagle Medium (DMEM), and counted. When used, c29 or scrambled peptide were added to cultures for the third hour of the serum starvation procedure. 1×10^7 cells/ml suspended in 500 μl of serum-free DMEM were incubated with 26 nM NGF-FITC on ice for 60 minutes before analysis. For binding competition assays, following 1 hour in NGF-FITC, cells were washed with ice-cold PBS containing 0.1% normal bovine serum and incubated on ice with unlabeled NGF at concentrations ranging from 100 pM to 10 μM for 30 minutes, then washed twice in PBS before being analysed on a BD Flow Cytometer FACS Scan (Becton-Dickinson).
To determine association rates, cells were harvested as above following serum starvation and peptide treatment, and were resuspended in 3 ml of serum-free Neurobasal (NB) medium containing […] (Invitrogen) and […] nonessential amino acids, prior to analysis on the flow cytometer. Cells were analysed for 30 seconds prior to the addition of 26 nM NGF-FITC, and then for 30 minutes in real time with an analysis rate of 200-300 events/sec.

TrkA and p75^NTR = test: Surface biotinylation of receptors in PC12 cells; type: cell-based; details: 1 μM peptide, with or without NGF
Description: FIG. 10: The juxtamembrane domain of p75^NTR increases the association of NGF to cells expressing TrkA. (A and B) Dose response graphs of the proportion (%) of PC12 cells with fluorescence intensity above background following treatment with 26 […] NGFFITC, a FITC-conjugated antibody to the extracellular domain of p75^NTR (A), or an antibody to TrkA (detected using an anti-rabbit Alexa 594 secondary) (B), after pretreatment with increasing concentrations of […] peptide. (n=3 experiments per data point; mean±SEM *p<0.05, **p<0.01) (C) Representative western blots (WB) of TrkA and p75^NTR present in streptavidin precipitates (surface biotin), or lysate flow through of PC12 cells that had been treated for 1 hour with NGF and/or c29 and scrambled (SC) peptide, prior to the surface proteins being labelled with biotin for 90 minutes on ice.

[2] = 26 nM NGF-FITC 60 minutes, + c29 c.f. TrkAK538A alone

In the case of “KRWNSCKQNKQGANSRPVNQTPPPEGEKL (c29- Fragment of p75ICD) [29 amino acid peptide of the p75NTR juxtamembrane Chopper domain; delivered to cells linked to PTD4 or disulfide-linked carrier]”, the “NGF-induced cell death of motor neurons” value ([1]; 1 ng/ml BDNF plus NGF) is reported as “significantly protected from NGF-induced cell death”, the “neuronal survival after BDNF withdrawal” value ([1]; 10-fold lower BDNF, vs scrambled peptide) is reported as “significantly increased neuronal survival” and the “survival of motor neurons following CNTF or GDNF withdrawal” value ([1]; 10-fold lower CNTF or GDNF) is reported as “no effect on the survival of motor neurons”. For the same sequence, the motor neuron survival ([1]; BDNF 0.01-1.0 ng/ml, after 5 days, vs control cultures) was “increased survival”, the “survival rate of cells” value (PC12 cells; 1 ng/ml NGF after differentiation in 100 ng/ml NGF) was “significantly increased the survival rate” and the cell survival (PC12 cells; absence of NGF) was “did not affect on cell survival”. The “basal PC12 cell growth and proliferation” value (PC12 cells; medium lacking NGF) was “no effect on basal PC12 cell growth and proliferation”, the “% of cell population with FITC above background” value (TrkAK538A; [2]) was 112.2 ± 5.3% and the “Maximal fluorescence per cell of the population” value (TrkAK538A; [2]) was 128.0 ± 11.7%. For the same sequence, the “Mean fluorescence per FITC-positive cell” value (TrkAK538A; [2]) was 125.0 ± 12.1%, the Median population fluorescence (TrkAK538A; [2]) was 140.5 ± 21.3% and the “half time of NGF-FITC binding” value (TrkAK538A; 26 nM NGF-FITC, cells pre-treated with c29, average of 3 experiments) was 3.6 min. The “faster association rate than untreated cells” value (TrkAK538A; Hill-Slope association curve fit) was roughly 3 fold, the “total number of fluorescent cells, median, mean and maximal fluorescence” value (TrkAK538A; compared to control TrkAK538A-transfected cells) was “significantly increased” and the “mean fluorescence of the population following receptor saturation, higher than untreated” value (TrkAK538A; ~20 minutes after NGF addition) was “at least 20%”. The “surface or total receptor levels of TrkA and p75^NTR” value (TrkA and p75^NTR) was “no significant difference”.
